Source: US20260144251A1, “ANTIMICROBIAL NANOCLAYS COMPRISING CATIONIC ANTIMICROBIALS, METHOD OF PREPARATION AND USES THEREOF” (Polyamyna Nanotech Inc., priority 2019, published 2026)
Converted amounts (≈) assume the structure as drawn. Read-outs that look alike come from different tables or passages of the source.

Columns and labels:
Assay in all cases: MIC, microbroth dilution method
MRSA (SA001) = format: cell-based, Staphylococcus aureus
Method: (§1) The antimicrobial activity (minimum inhibitory concentration, MIC) was evaluated by employing microbroth dilution method to determine the lowest concentration of the assayed antimicrobial additive material.

P. aeruginosa (PA07) = format: cell-based
Method: as §1

E. cloacae (EB5) = format: cell-based
Method: as §1

A. baumannii (AB034) = format: cell-based
Method: as §1

E. coli (K12) = format: cell-based
Method: as §1

K. pneumoniae (KP001) = format: cell-based
Method: as §1

MRSA (SA004) = format: cell-based, Staphylococcus aureus
Method: as §1

E. coli (E524) = format: cell-based; settings: Escherichia coli
Method: as §1

A. baumannii (AB30) = format: cell-based
Method: as §1

| Compound | MIC (MRSA (SA001)) [µg/mL] | MIC (P. aeruginosa (PA07)) [µg/mL] | MIC (E. cloacae (EB5)) [µg/mL] | MIC (A. baumannii (AB034)) [µg/mL] | MIC (E. coli (K12)) [µg/mL] | MIC (K. pneumoniae (KP001)) [µg/mL] | MIC (MRSA (SA004); Staphylococcus aureus, read-out: MIC) [µg/mL] | MIC (P. aeruginosa (PA07); Pseudomonas aeruginosa, read-out: MIC) [µg/mL] | MIC (E. coli (E524)) [µg/mL] | MIC (A. baumannii (AB30); Acinetobacter baumannii, read-out: MIC) [µg/mL] | MIC (E. cloacae (EB5); Enterobacter cloacae, read-out: MIC) [µg/mL] | MIC (K. pneumoniae (KP001); Klebsiella pneumoniae, read-out: MIC) [µg/mL] | MIC (MRSA (SA004)) [µg/mL] | MIC (A. baumannii (AB30)) [µg/mL] |
| --- | --- | --- | --- | --- | --- | --- | --- | --- | --- | --- | --- | --- | --- | --- |
| [Ag] [Ag, Silver] | 8 | 2 | 32 | 8 | 2 | 8 |  |  |  |  |  |  |  |  |
| [H]/N=C(\N/C(=N/[H])NCCCCCCNC(=N)NC(=N)Nc1ccc(Cl)cc1)Nc1ccc(Cl)cc1 [Chlorhexidine] |  |  |  |  |  |  | 8 (≈ 15.8 µM) | 16 (≈ 31.7 µM) | 2 (≈ 3.96 µM) | 256 (≈ 506 µM) | 8 (≈ 15.8 µM) | < 0.5 |  |  |
| Benzalkonium chloride [BAC] | 1 | 32 | 8 | 2 | 16 | 4 |  |  |  |  |  |  |  |  |
| Neomycin |  | 128 | 4 |  |  |  |  |  |  |  |  |  | 4 | 8 |
